# Data from ChEMBL document CHEMBL4507280 (2021).
# What was measured:
# [1] = target: Beta-3 adrenergic receptor (Homo sapiens) (UniProt P13945); conditions: Compound concentration 10.0 uM
# [2] = target: Casein kinase I isoform alpha-like (Homo sapiens) (UniProt Q8N752); conditions: Compound concentration 1000.0 nM
# [3] = target: Phosphatidylinositol 5-phosphate 4-kinase type-2 gamma (Homo sapiens) (UniProt Q8TBX8); conditions: Compound concentration 1000.0 nM
# [4] = target: Tyrosine-protein kinase JAK2 (Homo sapiens) (UniProt O60674); conditions: Compound concentration 1000.0 nM
# [5] = target: Serine/threonine-protein kinase 25 (Homo sapiens) (UniProt O00506); conditions: Compound concentration 1000.0 nM
# [6] = target: Mitogen-activated protein kinase 1 (Homo sapiens) (UniProt P28482); conditions: Compound concentration 1000.0 nM
# [7] = target: Tyrosine-protein kinase CSK (Homo sapiens) (UniProt P41240); conditions: Compound concentration 1000.0 nM
# [8] = target: Calcium/calmodulin-dependent protein kinase type II subunit gamma (Homo sapiens) (UniProt Q13555); conditions: Compound concentration 1000.0 nM
# [9] = test system: Tyrosine-protein kinase ABL1 (Homo sapiens), P00519 [H396P]; conditions: Compound concentration 1000.0 nM
# [10] = target: Ribosomal protein S6 kinase alpha-3 (Homo sapiens) (UniProt P51812); conditions: Compound concentration 1000.0 nM
# [11] = target: Alpha-2C adrenergic receptor (Homo sapiens) (UniProt P18825); conditions: Compound concentration 10.0 uM
# [12] = target: Serine/threonine-protein kinase D3 (Homo sapiens) (UniProt O94806); conditions: Compound concentration 1000.0 nM
# [13] = target: Tyrosine-protein kinase JAK1 (Homo sapiens) (UniProt P23458); conditions: Compound concentration 1000.0 nM
# [14] = test system: Epidermal growth factor receptor (Homo sapiens), P00533 [UNDEFINED MUTATION]; conditions: Compound concentration 1000.0 nM
# [15] = test system: Tyrosine-protein kinase ABL1 (Homo sapiens), P00519 [F317L]; conditions: Compound concentration 1000.0 nM
# [16] = target: TGF-beta receptor type-1 (Homo sapiens) (UniProt P36897); conditions: Compound concentration 1000.0 nM
# [17] = target: Casein kinase I isoform epsilon (Homo sapiens) (UniProt P49674); conditions: Compound concentration 1000.0 nM
# [18] = target: Tyrosine-protein kinase HCK (Homo sapiens) (UniProt P08631); conditions: Compound concentration 1000.0 nM
# [19] = target: Phosphatidylinositol 4,5-bisphosphate 3-kinase catalytic subunit gamma isoform (Homo sapiens) (UniProt P48736); conditions: Compound concentration 1000.0 nM
# [20] = test system: Mast/stem cell growth factor receptor Kit (Homo sapiens), P10721 [A829P]; conditions: Compound concentration 1000.0 nM
# [21] = target: Tyrosine-protein kinase receptor Tie-1 (Homo sapiens) (UniProt P35590); conditions: Compound concentration 1000.0 nM
# [22] = target: Ribosomal protein S6 kinase alpha-6 (Homo sapiens) (UniProt Q9UK32); conditions: Compound concentration 1000.0 nM
# [23] = test system: Mast/stem cell growth factor receptor Kit (Homo sapiens), P10721 [D816H]; conditions: Compound concentration 1000.0 nM
# [24] = target: Ephrin type-B receptor 2 (Homo sapiens) (UniProt P29323); conditions: Compound concentration 1000.0 nM
# [25] = target: Interleukin-1 receptor-associated kinase 4 (Homo sapiens) (UniProt Q9NWZ3); conditions: Compound concentration 1000.0 nM
# [26] = target: Phosphatidylinositol 4,5-bisphosphate 3-kinase catalytic subunit delta isoform (Homo sapiens) (UniProt O00329); conditions: Compound concentration 1000.0 nM
# [27] = target: G protein-coupled receptor kinase 4 (Homo sapiens) (UniProt P32298); conditions: Compound concentration 1000.0 nM
# [28] = target: Serine/threonine-protein kinase/endoribonuclease IRE1 (Homo sapiens) (UniProt O75460); conditions: Compound concentration 1000.0 nM
# [29] = test system: Fibroblast growth factor receptor 3 (Homo sapiens), P22607 [G697C]; conditions: Compound concentration 1000.0 nM
# [30] = target: Ephrin type-A receptor 1 (Homo sapiens) (UniProt P21709); conditions: Compound concentration 1000.0 nM
# [31] = target: Serine/threonine-protein kinase Nek6 (Homo sapiens) (UniProt Q9HC98); conditions: Compound concentration 1000.0 nM
# [32] = target: Sodium-dependent noradrenaline transporter (Homo sapiens) (UniProt P23975); conditions: Compound concentration 10.0 uM
# [33] = target: Serine/threonine-protein kinase TNNI3K (Homo sapiens) (UniProt Q59H18); conditions: Compound concentration 1000.0 nM
# [34] = target: ALK tyrosine kinase receptor (Homo sapiens) (UniProt Q9UM73); conditions: Compound concentration 1000.0 nM
# [35] = target: AP2-associated protein kinase 1 (Homo sapiens) (UniProt Q2M2I8); conditions: Compound concentration 1000.0 nM
# [36] = target: LIM domain kinase 2 (Homo sapiens) (UniProt P53671); conditions: Compound concentration 1000.0 nM
# [37] = target: Ephrin type-A receptor 6 (Homo sapiens) (UniProt Q9UF33); conditions: Compound concentration 1000.0 nM
# [38] = target: Phosphatidylinositol 3-kinase catalytic subunit type 3 (Homo sapiens) (UniProt Q8NEB9); conditions: Compound concentration 1000.0 nM
# [39] = target: Focal adhesion kinase 1 (Homo sapiens) (UniProt Q05397); conditions: Compound concentration 1000.0 nM
# [40] = target: Serine/threonine-protein kinase mTOR (Homo sapiens) (UniProt P42345); conditions: Compound concentration 1000.0 nM
# [41] = target: Mitogen-activated protein kinase 4 (Homo sapiens) (UniProt P31152); conditions: Compound concentration 1000.0 nM
# [42] = target: Serine/threonine-protein kinase WNK2 (Homo sapiens) (UniProt Q9Y3S1); conditions: Compound concentration 1000.0 nM
# [43] = target: Tyrosine-protein kinase Fes/Fps (Homo sapiens) (UniProt P07332); conditions: Compound concentration 1000.0 nM
# [44] = target: Fibroblast growth factor receptor 1 (Homo sapiens) (UniProt P11362); conditions: Compound concentration 1000.0 nM
# [45] = target: Tyrosine-protein kinase ITK/TSK (Homo sapiens) (UniProt Q08881); conditions: Compound concentration 1000.0 nM
# Chain of Serine/threonine-protein kinase WNK2 (Homo sapiens) (Q9Y3S1 whole entry): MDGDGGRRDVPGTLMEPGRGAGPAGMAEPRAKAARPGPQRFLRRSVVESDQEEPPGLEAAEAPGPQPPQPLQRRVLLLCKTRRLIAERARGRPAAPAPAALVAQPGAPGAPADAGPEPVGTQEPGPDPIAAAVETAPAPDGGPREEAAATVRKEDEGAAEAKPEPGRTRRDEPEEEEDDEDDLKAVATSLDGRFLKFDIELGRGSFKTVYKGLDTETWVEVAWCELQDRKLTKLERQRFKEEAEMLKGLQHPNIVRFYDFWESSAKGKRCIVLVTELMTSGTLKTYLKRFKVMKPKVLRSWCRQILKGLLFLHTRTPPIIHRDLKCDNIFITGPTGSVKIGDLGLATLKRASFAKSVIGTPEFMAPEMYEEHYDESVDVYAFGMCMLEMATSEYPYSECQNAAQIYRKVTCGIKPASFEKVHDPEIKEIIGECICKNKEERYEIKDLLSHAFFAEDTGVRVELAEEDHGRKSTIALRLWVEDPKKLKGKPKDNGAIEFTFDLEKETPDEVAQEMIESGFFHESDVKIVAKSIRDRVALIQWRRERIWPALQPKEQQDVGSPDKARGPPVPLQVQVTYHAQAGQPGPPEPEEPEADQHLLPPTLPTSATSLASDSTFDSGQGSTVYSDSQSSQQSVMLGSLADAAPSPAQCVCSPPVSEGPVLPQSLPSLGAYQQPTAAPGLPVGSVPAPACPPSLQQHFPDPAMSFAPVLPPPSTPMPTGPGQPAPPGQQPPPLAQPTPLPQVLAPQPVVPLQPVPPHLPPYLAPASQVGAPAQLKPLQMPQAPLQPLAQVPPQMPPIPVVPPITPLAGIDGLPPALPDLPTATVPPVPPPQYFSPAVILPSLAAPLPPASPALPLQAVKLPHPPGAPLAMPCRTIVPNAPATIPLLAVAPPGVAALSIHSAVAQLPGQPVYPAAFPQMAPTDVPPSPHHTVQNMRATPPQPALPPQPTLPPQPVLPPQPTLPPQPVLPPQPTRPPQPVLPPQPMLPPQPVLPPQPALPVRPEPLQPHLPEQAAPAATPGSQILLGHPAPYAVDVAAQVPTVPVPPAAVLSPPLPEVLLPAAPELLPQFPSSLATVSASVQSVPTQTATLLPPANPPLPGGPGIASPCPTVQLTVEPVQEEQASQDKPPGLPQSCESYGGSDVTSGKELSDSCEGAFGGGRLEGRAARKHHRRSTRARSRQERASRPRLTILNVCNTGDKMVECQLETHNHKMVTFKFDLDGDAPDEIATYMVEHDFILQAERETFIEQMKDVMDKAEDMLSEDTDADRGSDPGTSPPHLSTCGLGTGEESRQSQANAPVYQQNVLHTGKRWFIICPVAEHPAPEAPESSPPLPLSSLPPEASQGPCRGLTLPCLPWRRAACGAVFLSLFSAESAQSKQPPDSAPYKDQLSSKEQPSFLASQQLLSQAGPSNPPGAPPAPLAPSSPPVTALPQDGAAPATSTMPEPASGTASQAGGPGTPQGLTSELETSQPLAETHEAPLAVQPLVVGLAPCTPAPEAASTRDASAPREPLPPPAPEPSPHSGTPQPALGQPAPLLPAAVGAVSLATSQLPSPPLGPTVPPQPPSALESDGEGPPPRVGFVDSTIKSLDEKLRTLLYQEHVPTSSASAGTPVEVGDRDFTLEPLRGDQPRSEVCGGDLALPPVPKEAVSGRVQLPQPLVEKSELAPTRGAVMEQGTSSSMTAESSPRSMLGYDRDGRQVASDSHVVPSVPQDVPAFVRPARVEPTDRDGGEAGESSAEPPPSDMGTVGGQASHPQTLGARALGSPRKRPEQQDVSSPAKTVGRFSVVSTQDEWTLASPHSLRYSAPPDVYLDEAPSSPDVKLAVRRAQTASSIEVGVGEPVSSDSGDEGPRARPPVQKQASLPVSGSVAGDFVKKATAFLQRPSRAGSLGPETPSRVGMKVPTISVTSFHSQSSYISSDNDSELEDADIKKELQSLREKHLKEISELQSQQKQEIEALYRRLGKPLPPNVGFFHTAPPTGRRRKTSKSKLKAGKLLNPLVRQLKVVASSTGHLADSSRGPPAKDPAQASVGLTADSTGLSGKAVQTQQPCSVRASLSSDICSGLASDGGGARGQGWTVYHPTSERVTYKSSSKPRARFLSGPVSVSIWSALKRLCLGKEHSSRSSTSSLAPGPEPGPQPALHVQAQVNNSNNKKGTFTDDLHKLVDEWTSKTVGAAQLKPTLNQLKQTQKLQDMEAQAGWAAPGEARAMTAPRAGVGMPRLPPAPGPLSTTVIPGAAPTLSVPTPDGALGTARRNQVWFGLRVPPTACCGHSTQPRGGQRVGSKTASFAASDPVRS
# Chain of Serine/threonine-protein kinase/endoribonuclease IRE1 (Homo sapiens) (O75460 19-977 limits assumed): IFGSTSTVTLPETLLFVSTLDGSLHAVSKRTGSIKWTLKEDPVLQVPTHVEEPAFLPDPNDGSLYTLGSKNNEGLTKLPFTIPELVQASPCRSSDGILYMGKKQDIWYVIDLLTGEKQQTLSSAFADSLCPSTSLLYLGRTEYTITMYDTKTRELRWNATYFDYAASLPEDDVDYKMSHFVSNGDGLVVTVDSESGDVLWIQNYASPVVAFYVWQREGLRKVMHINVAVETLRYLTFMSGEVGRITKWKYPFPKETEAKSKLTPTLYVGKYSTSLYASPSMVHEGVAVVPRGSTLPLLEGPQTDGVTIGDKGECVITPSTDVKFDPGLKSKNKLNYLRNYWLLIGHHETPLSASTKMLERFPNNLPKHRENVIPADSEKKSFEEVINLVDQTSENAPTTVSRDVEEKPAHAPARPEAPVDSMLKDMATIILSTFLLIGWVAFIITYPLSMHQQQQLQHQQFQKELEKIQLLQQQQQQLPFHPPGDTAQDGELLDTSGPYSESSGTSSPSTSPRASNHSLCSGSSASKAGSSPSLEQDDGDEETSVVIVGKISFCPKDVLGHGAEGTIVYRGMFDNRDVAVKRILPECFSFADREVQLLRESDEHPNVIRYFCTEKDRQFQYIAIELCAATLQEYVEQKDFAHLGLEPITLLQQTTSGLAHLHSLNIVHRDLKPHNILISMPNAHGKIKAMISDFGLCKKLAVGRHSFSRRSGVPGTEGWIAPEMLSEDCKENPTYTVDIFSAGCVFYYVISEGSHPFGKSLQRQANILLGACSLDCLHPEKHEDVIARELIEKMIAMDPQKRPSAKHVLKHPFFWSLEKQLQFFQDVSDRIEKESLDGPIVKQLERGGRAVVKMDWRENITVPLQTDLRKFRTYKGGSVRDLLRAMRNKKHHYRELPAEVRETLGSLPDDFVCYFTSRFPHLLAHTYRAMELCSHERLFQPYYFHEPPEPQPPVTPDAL
# Chain of Ephrin type-A receptor 1 (Homo sapiens) (P21709 whole entry): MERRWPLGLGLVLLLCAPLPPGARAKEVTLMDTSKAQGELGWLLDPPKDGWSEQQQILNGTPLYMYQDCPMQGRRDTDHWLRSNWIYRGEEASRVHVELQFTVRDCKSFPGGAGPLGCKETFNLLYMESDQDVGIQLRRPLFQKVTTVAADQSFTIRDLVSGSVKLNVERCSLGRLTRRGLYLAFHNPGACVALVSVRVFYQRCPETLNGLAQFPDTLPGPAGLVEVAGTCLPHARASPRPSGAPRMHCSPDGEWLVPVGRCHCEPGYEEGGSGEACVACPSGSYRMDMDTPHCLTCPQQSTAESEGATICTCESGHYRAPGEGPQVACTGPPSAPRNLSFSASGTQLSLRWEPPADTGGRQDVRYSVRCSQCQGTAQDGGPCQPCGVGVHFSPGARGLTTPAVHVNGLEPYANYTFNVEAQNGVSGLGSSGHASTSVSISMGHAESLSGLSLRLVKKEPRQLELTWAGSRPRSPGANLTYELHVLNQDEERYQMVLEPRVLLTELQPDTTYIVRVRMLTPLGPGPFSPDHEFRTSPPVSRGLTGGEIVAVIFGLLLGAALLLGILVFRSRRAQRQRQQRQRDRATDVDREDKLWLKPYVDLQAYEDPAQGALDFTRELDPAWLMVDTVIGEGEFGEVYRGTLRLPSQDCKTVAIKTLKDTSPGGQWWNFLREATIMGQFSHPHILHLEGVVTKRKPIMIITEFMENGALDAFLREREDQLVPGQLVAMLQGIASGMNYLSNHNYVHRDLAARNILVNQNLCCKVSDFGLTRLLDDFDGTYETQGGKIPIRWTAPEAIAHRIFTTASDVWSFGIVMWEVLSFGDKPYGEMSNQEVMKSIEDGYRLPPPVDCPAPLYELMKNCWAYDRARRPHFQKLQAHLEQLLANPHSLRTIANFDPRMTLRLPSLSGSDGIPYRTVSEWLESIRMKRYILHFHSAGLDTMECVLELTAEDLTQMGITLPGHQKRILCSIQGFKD
# Chain of G protein-coupled receptor kinase 4 (Homo sapiens) (P32298 whole entry, looked up): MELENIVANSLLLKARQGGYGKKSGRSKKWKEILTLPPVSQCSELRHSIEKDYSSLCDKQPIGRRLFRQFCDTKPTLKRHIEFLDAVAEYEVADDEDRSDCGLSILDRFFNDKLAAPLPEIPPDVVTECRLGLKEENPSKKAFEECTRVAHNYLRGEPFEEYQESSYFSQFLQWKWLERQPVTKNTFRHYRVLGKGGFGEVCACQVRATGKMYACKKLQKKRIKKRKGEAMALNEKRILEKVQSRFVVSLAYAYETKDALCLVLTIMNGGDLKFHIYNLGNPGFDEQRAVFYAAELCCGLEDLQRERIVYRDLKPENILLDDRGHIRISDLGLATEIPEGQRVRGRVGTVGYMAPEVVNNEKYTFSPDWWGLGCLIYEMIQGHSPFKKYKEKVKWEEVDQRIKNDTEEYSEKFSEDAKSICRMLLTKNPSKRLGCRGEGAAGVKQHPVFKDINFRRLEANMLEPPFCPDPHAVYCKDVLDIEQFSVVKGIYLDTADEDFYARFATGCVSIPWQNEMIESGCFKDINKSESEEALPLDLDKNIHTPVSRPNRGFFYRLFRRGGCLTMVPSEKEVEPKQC
# Chain of Serine/threonine-protein kinase Nek6 (Homo sapiens) (Q9HC98 whole entry): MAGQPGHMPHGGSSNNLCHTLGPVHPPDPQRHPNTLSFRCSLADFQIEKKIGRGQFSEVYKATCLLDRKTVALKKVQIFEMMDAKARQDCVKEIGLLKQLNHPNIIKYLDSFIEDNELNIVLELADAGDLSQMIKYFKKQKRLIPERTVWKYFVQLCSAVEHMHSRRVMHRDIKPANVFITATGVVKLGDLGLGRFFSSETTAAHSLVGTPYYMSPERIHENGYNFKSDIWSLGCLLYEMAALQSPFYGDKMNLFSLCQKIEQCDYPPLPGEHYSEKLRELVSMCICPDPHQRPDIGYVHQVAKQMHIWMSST
smiles,measurement,setting,value
CCC(=O)N[C@H]1CC[C@@H](C(=O)N(C)c2ccc(-c3nc4ccccc4o3)cc2)C1 [BI 99179],inhibition,[1],34.9%
same,residual activity,[2],100%
same,residual activity,[3],100%
same,residual activity,[4],70%
same,residual activity,[5],100%
same,residual activity,[6],76%
same,residual activity,[7],100%
same,residual activity,[8],95%
same,residual activity,[9],100%
same,residual activity,[10],88%
same,inhibition,[11],-5.31%
same,residual activity,[12],100%
same,residual activity,[13],77%
same,residual activity,[14],78%
same,residual activity,[15],86%
same,residual activity,[16],100%
same,residual activity,[17],93%
same,residual activity,[18],100%
same,residual activity,[19],99%
same,residual activity,[20],57%
same,residual activity,[21],100%
same,residual activity,[22],82%
same,residual activity,[23],85%
same,residual activity,[24],100%
same,residual activity,[25],87%
same,residual activity,[26],100%
same,residual activity,[27],100%
same,residual activity,[28],91%
same,residual activity,[29],100%
same,residual activity,[30],100%
same,residual activity,[31],85%
same,inhibition,[32],2.94%
same,residual activity,[33],100%
same,residual activity,[34],86%
same,residual activity,[35],100%
same,residual activity,[36],100%
same,residual activity,[37],76%
same,residual activity,[38],89%
same,residual activity,[39],100%
same,residual activity,[40],92%
same,residual activity,[41],100%
same,residual activity,[42],74%
same,residual activity,[43],73%
same,residual activity,[44],100%
same,residual activity,[45],100%
CCC(=O)N[C@@H]1CC[C@H](C(=O)N(C)c2ccc(-c3nc4ccccc4o3)cc2)C1 [BI 99990],inhibition,[1],-2.82%
same,residual activity,[2],100%
same,residual activity,[3],100%
same,residual activity,[4],100%
same,residual activity,[5],100%
same,residual activity,[6],88%
same,residual activity,[7],100%
same,residual activity,[8],100%
same,residual activity,[9],46%
same,residual activity,[10],91%
same,inhibition,[11],-2.55%
same,residual activity,[12],100%
same,residual activity,[13],88%
same,residual activity,[14],62%
same,residual activity,[15],92%
same,residual activity,[16],95%
same,residual activity,[17],100%
same,residual activity,[18],100%
same,residual activity,[19],75%
same,residual activity,[20],100%
same,residual activity,[21],95%
same,residual activity,[22],84%
same,residual activity,[23],100%
same,residual activity,[24],82%
same,residual activity,[25],100%
same,residual activity,[26],100%
same,residual activity,[27],100%
same,residual activity,[28],100%
same,residual activity,[29],88%
same,residual activity,[30],87%
same,residual activity,[31],99%
same,inhibition,[32],14.5%
same,residual activity,[33],99%
same,residual activity,[34],99%
same,residual activity,[35],100%
same,residual activity,[36],100%
same,residual activity,[37],100%
same,residual activity,[38],100%
same,residual activity,[39],100%
same,residual activity,[40],99%
same,residual activity,[41],100%
same,residual activity,[42],92%
same,residual activity,[43],96%
same,residual activity,[44],87%
same,residual activity,[45],100%
